Consider 5 molecules from PMC4461206 (Acta Crystallographica Section D: Biological Crystallography, 2015).

In data set [1] the target is T1, AcdDPN7 (3-sulfinopropionyl-coenzyme A desulfinase) (Advenella mimigardefordensis, UniProt K4L7X3).
T1 construct: gene acd; His6-tagged, pET-23a::acdDPN7, E. coli BL21(DE3) pLysS; homotetramer 150-200 kDa, one FAD per subunit; residues 2-392 superimposed in the structure
Description: X-ray crystal structure, […] A. In kind it is binding. The settings on record: co-crystallized and soaked with succinyl-CoA, which was hydrolysed; only CoA seen in the active site (monomers A, B, D, E, F), occupancy 0.43-0.59; pH 6.5.

For data set [2], the target named is T1, AcdDPN7 (3-sulfinopropionyl-coenzyme A desulfinase). Nature of the data set: DTNB sulfite-release assay, […] nm. It counts as biochemical. The settings on record: 50 mM Tris-HCl pH 7.4, 30 C, 0.2 mM DTNB, 0.1 mM 3SP-CoA, with or without O2.
For data set [3] the target is unchanged. Nature of the data set: X-ray crystal structure, […] A. As to conditions: noncovalent, one per subunit, site shared by two monomers; pH 6.5. It counts as binding.
Data set [4] concerns the molecule itself. Description: crystal structure; apo enzyme at 1.89 Å (two monomers in the asymmetric unit) and complex with CoA at 2.30 Å (six monomers, three dimers); 0.1 M Bis-tris pH 6.5, PEG 3350; 100 K.
Data set [5] concerns the molecule itself. Nature of the data set: SEC; wild-type Acd_(DPN7) and Acd_(DPN7_R84K) run side by side; conditions not told for this run. For orientation: SEC sorts molecules by how far they enter the pores of the column.

Numbering of substitutions follows the chain as printed.

For `CC(C)(COP(=O)(O)OP(=O)(O)OC[C@H]1O[C@@H](n2cnc3c(N)ncnc32)[C@H](O)[C@@H]1OP(=O)(O)O)[C@@H](O)C(=O)NCCC(=O)NCCS` [CoA], the “X-ray crystal structure, 2.30 A” value in data set [1] was “In the active sites of AcdDPN7 monomers A, B, D, E and F only the CoA group”. For `CC(C)(COP(=O)(O)OP(=O)(O)OC[C@H]1O[C@@H](n2cnc3c(N)ncnc32)[C@H](O)[C@@H]1OP(=O)(O)O)[C@@H](O)C(=O)NCCC(=O)NCCSC(=O)CCS(=O)O` [3SP-CoA], in data set [2], the “DTNB sulfite-release assay, 412 nm” value is reported as “AcdDPN7 showed no significant difference in reaction velocity in the presence or absence of O2”. As to `Cc1cc2nc3c(=O)[nH]c(=O)nc-3n(C[C@H](O)[C@H](O)[C@H](O)COP(=O)(O)OP(=O)(O)OC[C@H]3O[C@@H](n4cnc5c(N)ncnc54)[C@H](O)[C@@H]3O)c2cc1C` [FAD], the “X-ray crystal structure, 1.89 A” value in data set [3] is “AcdDPN7 is a tetramer and each monomer has one FAD noncovalently bound to the polypeptide”.

B1: 3-Sulfinopropionyl-coenzyme A (3SP-CoA) desulfinase from Advenella mimigardefordensis DPN7T (enzyme)
chain: MYELTPEQRTLQTQARELAQSVFASTAVQTDLTEQYPWDNVAQLRDAGFMGMMLPTSVGGRGLSTLDTVIVIEEMAKACATMGRITVDSNLGAIGAITKYGSEEQIKLAADLVLAGDKPAICISEPNAGSAASEMTTRADKNGDHYILNGEKYWITGGGVSKLHLIFARVFDDGVEQGIGAFITVLDDHGPEGLKVGRRLYAMGVRGIPETHLEFHDLKIHKSMMITFPDGLKRGFAALMSAYNAQRVGAGAVALGIAQCAFEEGVAYLKRREQFGRPLAEFQGLQWMVADMSVQLEAARLMLRSAAVSGETFPDINKAAQAKIFAAETANKVTNDALQFFGSSGYGRHNPMERHVRDARMFTIAGGTAQILRTQVASKILDMKLPQTRDGYLKAAQNSKR
One may read the stoichiometry N as the number of molecules, sites or subunits per partner or assembly. B1: in data set [4], the “stoichiometry N” value turned out to be 4.

B2: Acd_(DPN7_R84K) (enzyme)
chain: B1 chain with R84K
With B2, in data set [5], the “stoichiometry N” value came to 4.
